From US20060079453A1, “Hla binding peptides and their uses” (priority 2002, published 2006)
No end group written: not given here.

Assays:
Experiment in all cases: biochemical
Type in all cases: binding
[1] = molecular target: HLA-DR DRB5*0101 (DR51) (Homo sapiens, UniProt P01903+Q30154); details: DRB5 *0101
[2] = molecular target: HLA-DR DRB4*0101 (DR53) (Homo sapiens, UniProt P01903+P13762, G164S); details: DRB4 *0101
[3] = molecular target: HLA-DR DRB1*1101 (DR11) (Homo sapiens, UniProt P01903+P01911, A100R/A169T/A87E/I96F/K41T/L162R/M171V/P40S/Q125H/Q178H/Q39Y/Q99D/R42S/S66Y/T262R/V115G/W38E); details: DRB1 *1101
Sequence of HLA-DR DRB1*1101 (DR11) (P01903 26-254 limits assumed, other chains not shown): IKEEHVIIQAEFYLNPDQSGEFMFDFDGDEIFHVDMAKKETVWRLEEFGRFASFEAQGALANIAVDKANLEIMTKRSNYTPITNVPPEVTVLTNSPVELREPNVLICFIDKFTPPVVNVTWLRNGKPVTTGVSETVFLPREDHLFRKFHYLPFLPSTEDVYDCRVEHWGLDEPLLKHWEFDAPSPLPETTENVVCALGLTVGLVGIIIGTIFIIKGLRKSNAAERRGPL

[4] = molecular target: HLA-DR DRB1*0101 (DR1) (Homo sapiens, UniProt P01903+P01911, A100R/D57E/F55L/F60I/F76Y/I96L/L162R/M171V/P40L/Q125E/R42F/V115G/Y59C); details: DRB1 *0101
[5] = molecular target: HLA-DR DRB1*1501 (DR15) (Homo sapiens, UniProt P01903+P01911); details: DRBI *1501
[6] = molecular target: HLA-DR DRB1*0301 (DR3) (Homo sapiens, UniProt P01903+P01911, A100K/A102G/A103R/A169T/F55Y/I96L/K41T/L162R/M171V/P40S/Q125H/Q178H/Q39Y/R42S/S66N/T106N/T262R/W38E/Y61H)
Sequence of HLA-DR DRB1*0301 (DR3) (P01903 26-254 limits assumed, other chains not shown): as above

[7] = molecular target: HLA-DR DRB1*0901 (DR9) (Homo sapiens, UniProt P01903+P01911, A100R/A103E/D57H/D86V/F55Y/F60I/F76Y/I96F/K127E/L162R/M171V/P40D/Q125H/Q99R/R33Q/R42F/S133A/S66N/T210M/V115G/W38K/Y107V/Y59G/Y89S); details: DRB1 *0901
[8] = molecular target: HLA-DR DRB1*0401 (DR4) (Homo sapiens, UniProt P01903+P01911, A100K/A169T/F76Y/I96L/K127E/L162R/M171V/N62H/P40V/Q125Y/R42H/S133A/S149N/S66Y/V115G/V209L/W38E); details: DRB1 *0401
[9] = molecular target: HLA-DR DRB1*0802 (DR8) (Homo sapiens, UniProt P01903+P01911, A100R/A103L/A169T/F76Y/H45Y/I96F/K41T/L162R/M171V/P40S/Q125H/Q178H/Q39Y/Q99D/R218S/R42G/S66Y/V115G/W38E)
[10] = molecular target: HLA-DR DRB1*1302 (DR13) (Homo sapiens, UniProt P01903+P01911, A100E/A169T/K41T/L162R/M171V/P40S/Q125H/Q178H/Q39Y/Q99D/R42S/S66N/T262R/V115G/W38E/Y61H); details: DRBI *1302
Sequence of HLA-DR DRB1*1302 (DR13) (P01903 26-254 limits assumed, other chains not shown): as above

[11] = molecular target: HLA-DR DRB1*0701 (DR7) (Homo sapiens, UniProt P01903+P01911, A100R/A102G/A103Q/D57E/D86V/E43K/F76Y/K127E/L162R/M171V/P40G/Q125H/Q99D/R33Q/R42Y/R54Q/S133A/S66F/T210M/V115G/Y107V/Y59L/Y89S); details: DRB1 *0701
[12] = molecular target: HLA-DR DRB3*0101 (DR52) (Homo sapiens, UniProt P01903+P79483)

Compound	IC50 [1] [µM]	IC50 [2] [µM]	IC50 [3] [µM]	IC50 [4] [µM]	IC50 [5] [µM]	IC50 [6] [µM]	IC50 [7] [µM]	IC50 [8] [µM]	IC50 [9] [µM]	IC50 [10] [µM]	IC50 [11] [µM]	IC50 [12] [µM]
CC[C@H](C)[C@H](NC(=O)[C@H](CO)NC(=O)[C@H](CO)NC(=O)[C@H](CC(=O)O)NC(=O)[C@H](C)NC(=O)[C@H](CC(N)=O)NC(=O)[C@@H](NC(=O)[C@H](Cc1ccc(O)cc1)NC(=O)[C@H](C)NC(=O)[C@@H](N)C(C)C)[C@@H](C)CC)C(=O)N[C@@H](CCC(=O)O)C(=O)NCC(=O)N[C@@H](CC(N)=O)C(=O)N[C@@H](Cc1ccc(O)cc1)C(=O)N[C@H](C(=O)O)[C@@H](C)O	> 37.8	0.841	> 18.9	4.72	> 3.49	0.531	5.47	0.411	106	2.15	9.74	0.471
YLVTGERGFFYTPKT	> 28.4	20.7	7.62	0.779	> 25.6	0.517	6.29	> 20.5	29.2	2.1	7.74	13.7
CSCC[C@H](NC(=O)[C@@H]1CCCN1C(=O)[C@@H](N)CC(=O)O)C(=O)N[C@@H](Cc1ccccc1)C(=O)N[C@@H](CCCCN)C(=O)N[C@@H](Cc1ccc(O)cc1)C(=O)N[C@@H](Cc1c[nH]cn1)C(=O)N[C@@H](CC(C)C)C(=O)N[C@H](C(=O)N[C@H](C(=O)N[C@@H](C)C(=O)N[C@@H](CCC(N)=O)C(=O)N[C@H](C(=O)N[C@@H](CCCNC(=N)N)C(=O)NCC(=O)O)C(C)C)C(C)C)[C@@H](C)O	0.011	0.467	0.069	0.0057	0.23	> 75	0.258	0.0091	0.043	0.699	0.168	7.3
LHLLSNDMCARAYSE	28.8	0.324	26	2.1	> 2.37	0.938	59.9	4.28	50.2	1.88	27.7	1.31
CC[C@H](C)[C@H](NC(=O)[C@H](CS)NC(=O)[C@H](Cc1c[nH]cn1)NC(=O)[C@H](C)N)C(=O)N[C@@H](CCCNC(=N)N)C(=O)N[C@@H](CC(N)=O)C(=O)N[C@@H](CCCCN)C(=O)N[C@@H](CO)C(=O)N[C@H](C(=O)N[C@H](C(=O)N[C@@H](CC(C)C)C(=O)N[C@@H](CC(C)C)C(=O)NCC(=O)N[C@@H](CCCNC(=N)N)C(=O)N[C@@H](Cc1c[nH]cn1)C(=O)O)[C@@H](C)CC)C(C)C	3.63	0.0087	0.093	0.578	0.088	29.7	0.715	0.069	0.104	0.075	2.57	4.75
CC[C@H](C)[C@H](NC(=O)[C@@H]1CCCN1C(=O)[C@@H](N)CC(N)=O)C(=O)N[C@@H](CC(C)C)C(=O)N[C@@H](CC(C)C)C(=O)N[C@@H](Cc1c[nH]c2ccccc12)C(=O)N[C@@H](CCC(N)=O)C(=O)N1CCC[C@H]1C(=O)N[C@H](C(=O)N1CCC[C@H]1C(=O)N[C@H](C(=O)N[C@@H](Cc1c[nH]cn1)C(=O)N[C@H](C(=O)N[C@H](C(=O)N1CCC[C@H]1C(=O)O)C(C)C)[C@@H](C)O)C(C)C)[C@@H](C)CC	25	0.067	0.599	0.031	0.0046	> 81.8	0.575	0.206	13	0.25	0.041	> 8.83
